Measurements as given in patent publication US10450306B2, “Isoxazole analogs as FXR agonists and methods of use thereof” (Enanta Pharmaceuticals, Inc., priority 2016, dated 2019).

Target: T1, human FXR (NR1H4) (Homo sapiens, UniProt Q96RI1)
T1 construct: host or cells: CHO (Chinese hamster ovary) reporter cells
T1 sequence (Q96RI1 1-486): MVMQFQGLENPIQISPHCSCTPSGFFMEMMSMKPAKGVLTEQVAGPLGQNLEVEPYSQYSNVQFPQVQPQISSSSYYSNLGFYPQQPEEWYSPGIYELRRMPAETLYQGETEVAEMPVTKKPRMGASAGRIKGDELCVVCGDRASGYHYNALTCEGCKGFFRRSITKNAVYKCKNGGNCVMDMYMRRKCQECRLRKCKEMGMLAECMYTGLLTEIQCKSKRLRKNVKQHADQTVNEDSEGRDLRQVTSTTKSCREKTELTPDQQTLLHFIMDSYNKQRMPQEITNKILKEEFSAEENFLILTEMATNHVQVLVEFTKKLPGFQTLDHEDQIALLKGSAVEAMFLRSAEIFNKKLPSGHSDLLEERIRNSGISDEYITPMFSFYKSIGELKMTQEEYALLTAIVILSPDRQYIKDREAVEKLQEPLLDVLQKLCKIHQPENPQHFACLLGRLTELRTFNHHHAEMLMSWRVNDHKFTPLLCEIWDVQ
Assay: Human FXR (NR1H4) Assay: Gal4 promoter driven luciferase reporter transactivation in CHO cells (Indigo Bioscience kit IB00601); on Efficacy (%): efficacy normalized to CDCA set as 100%
Assay type: cell-based
Conditions: for Emax: CHO, read-out: Efficacy (%); for EC50: Human FXR (NR1H4) reporter assay, potency ranges
From the text: Human FXR (NR1H4) Assay Determination of a ligand mediated Gal4 promoter driven transactivation to quantify ligand binding mediated activation of FXR. FXR Reporter Assay kit purchased from Indigo Bioscience (Catalogue number: IB00601) to determine the potency and efficacy of compound developed by Enanta that can induce FXR activation. The principle application of this reporter assay system is to quantify functional activity of human FXR. The assay utilizes non-human mammalian cells, CHO (Chinese hamster ovary) cells engineered to express human NR1H4 protein (referred to as FXR). Reporter cells also incorporate the cDNA encoding beetle luciferase which catalyzes the substrates and yields photon emission. Luminescence intensity of the reaction is quantified using a plate-reading luminometer, Envision. Reporter Cells include the luciferase reporter gene functionally linked to an FXR responsive promoter. Thus, quantifying changes in luciferase expression in the treated reporter cells provides a sensitive surrogate measure of the changes in FXR activity. […] The assay is according to the manufacturer's instructions. In brief, the assay was performed in white, 96 well plates using final volume of 100 ul containing cells with different doses of compounds. Retrieve Reporter Cells from −80° C. storage. Perform a rapid thaw of the frozen cells by transferring a 10 ml volume of 37° C. cell recovery medium into the tube of frozen cells. Recap the tube of Reporter Cells and immediately place it in a 37° C. water bath for 5-10 minutes. Retrieve the tube of Reporter Cell Suspension from the water bath. Sanitize the outside surface of the tube with a 70% alcohol swab, and then transfer it into the cell culture hood. Dispense 90 μl of cell suspension into each well of the 96-well Assay Plate. Transfer the plate into 37° C. incubator, allowing the cells adherent to the bottom of the well. Dilute compounds in Dilution Plate (DP), and administrate to cells at Assay Plate (AP). DMSO content of the samples was kept at 0.2%. Cells were incubated for additional 22 hours before luciferase activities were measured. Thirty minutes before intending to quantify FXR activity, remove Detection Substrate and Detection Buffer from the refrigerator and place them in a low-light area so that they may equilibrate to room temperature. Remove the plate's lid and discard all media contents by ejecting it into an appropriate waste container. Gently tap the inverted plate onto a clean absorbent paper towel to remove residual droplets. Cells will remain tightly adhered to well bottoms. Add 100 ul of luciferase detection reagent to each well of the assay plate. Allow the assay plate to rest at room temperature for at least 5 minutes following the addition of LDR. Set the instrument (Envision) to perform a single 5 second “plate shake” prior to reading the first assay well. Read time may be 0.5 second (500 mSec) per well.

Structure (SMILES): CC(C)(C)c1ccc(S(=O)(=O)NC(=O)c2cccc(N3CCN(Cc4c(-c5c(Cl)cccc5Cl)noc4C4CC4)CC3)c2)cc1 [Example 285]
- Emax: 126%
- EC50: 100 to 1000 nM

Structure (SMILES): O=C(NS(=O)(=O)C1CC1)c1ccc2nc(N3CCC(NCc4c(-c5ccccc5OC(F)(F)F)noc4C4CC4)CC3)sc2c1 [Example 791]
- Emax: 63%
- EC50: > 1000 nM

Structure (SMILES): COC(=O)c1cc(OC(C)C)c2nc(N3CCC(NCc4c(-c5c(Cl)cccc5Cl)noc4C4CC4)CC3)sc2c1 [Example 200-3]
- Emax: 35%
- EC50: 100 to 1000 nM

Structure (SMILES): CN(Cc1c(-c2c(Cl)cccc2Cl)noc1C1CC1)C1CCN(c2nc3ccc(C(=O)O)cc3s2)CC1 [Example 186]
- Emax: 45%
- EC50: > 1000 nM

Structure (SMILES): O=C(O)c1ccc2nc(N3C4CCC3CC(NCc3c(-c5ccccc5OC(F)(F)F)noc3C3CC3)C4)sc2c1 (centres unmarked) [Example 402]
- Emax: 112%
- EC50: 1 to 100 nM

Structure (SMILES): O=C(O)c1ccc2nc(N3C4CCC3CC(NCc3c(-c5c(F)cccc5F)noc3C3CC3)C4)sc2c1 (centres unmarked) [Example 1411]
- Emax: 94.7%
- EC50: 1 to 100 nM

Structure (SMILES): O=C(NS(=O)(=O)C1CC1)c1cc(F)c(N2C3CCC2CC(NCc2c(-c4ccccc4OC(F)(F)F)noc2C2CC2)C3)c(F)c1 (centres unmarked) [Example 900-11]
- Emax: 70.5%
- EC50: 1 to 100 nM

Structure (SMILES): O=C(NS(=O)(=O)C1CC1)c1ccc2nc(N3C4CCC3CC(NCc3c(-c5ccccc5OC(F)(F)F)noc3C3CC3)C4)ccc2c1 (centres unmarked) [Example 900-15]
- Emax: 82.5%
- EC50: 1 to 100 nM

Structure (SMILES): O=C(O)c1ccc2nc(N3C4CCC3CC(NCc3c(-c5ccccc5OC(F)(F)F)noc3C3CC3)C4)ccc2c1 (centres unmarked) [Example 514]
- Emax: 100%
- EC50: 1 to 100 nM

Structure (SMILES): COC(=O)c1ccc2nc(N3C4CCC3CC(NCc3c(-c5c(Cl)cccc5Cl)noc3C3CC3)C4)sc2c1-c1ccccc1 (centres unmarked) [Example 200-25]
- Emax: 58.5%
- EC50: 1 to 100 nM

Structure (SMILES): O=C(O)c1cc2sc(N3C4CCC3CC(NCc3c(-c5c(Cl)cccc5Cl)noc3C3CC3)C4)nc2c2ccccc12 (centres unmarked) [Example 200-28]
- Emax: 132%
- EC50: < 1 nM

Structure (SMILES): CN(c1nc2ccc(C(=O)NS(=O)(=O)N(C)C)cc2s1)C1CCC(OCc2c(-c3c(Cl)cccc3Cl)noc2C2CC2)CC1 (centres unmarked) [Example 279]
- Emax: 158%
- EC50: 100 to 1000 nM

Structure (SMILES): O=C(NS(=O)(=O)N1CCOCC1)c1ccc2nc(N3C4CCC3CC(NCc3c(-c5c(Cl)cccc5Cl)noc3C3CC3)C4)sc2c1 (centres unmarked) [Example 234]
- Emax: 146%
- EC50: 100 to 1000 nM

Structure (SMILES): O=C(O)c1cc(F)c2nc(N3C4CCC3CC(NCc3c(-c5ccccc5C(F)(F)F)noc3C3CC3)C4)sc2c1 (centres unmarked) [Example 1408]
- Emax: 103%
- EC50: 1 to 100 nM

Structure (SMILES): O=C(O)c1ccc2cc(N3C4CCC3CC(NCc3c(-c5c(Cl)cccc5Cl)noc3C3CC3)C4)ccc2c1 (centres unmarked) [Example 50]
- Emax: 186%
- EC50: < 1 nM

Structure (SMILES): COc1cc(C(=O)NS(=O)(=O)C2(C)CC2)cc2sc(N3C4CCC3CC(NCc3c(-c5c(Cl)cccc5Cl)noc3C3CC3)C4)nc12 (centres unmarked) [Example 304]
- Emax: 139%
- EC50: < 1 nM

Structure (SMILES): Cc1cc(C(=O)NS(=O)(=O)C2(C)CC2)cc2sc(N3C4CCC3CC(NCc3c(-c5ccccc5C(F)(F)F)noc3C3CC3)C4)nc12 (centres unmarked) [Example 1406]
- Emax: 133%
- EC50: < 1 nM

Structure (SMILES): CC(C)Oc1cc(C(=O)O)cc2sc(N3C4CCC3CC(NCc3c(-c5ccccc5C(F)(F)F)noc3C3CC3)C4)nc12 (centres unmarked) [Example 1401]
- Emax: 125%
- EC50: 100 to 1000 nM

Structure (SMILES): COC(=O)c1cc2sc(N3C4CCC3CC(NCc3c(-c5c(Cl)cccc5Cl)noc3C3CC3)C4)nc2cc1F (centres unmarked) [Example 200-15]
- Emax: 75.8%
- EC50: 1 to 100 nM

Structure (SMILES): CC1(S(=O)(=O)NC(=O)c2ccc3nc(N4CCC(NCc5c(-c6ccccc6OC(F)(F)F)noc5C5CC5)CC4)sc3c2)CC1 [Example 900-1]
- Emax: 80.5%
- EC50: 100 to 1000 nM

Structure (SMILES): CC(C)Oc1cc(C(=O)NS(=O)(=O)C2CC2)cc2sc(N3CCC(NCc4c(-c5c(Cl)cccc5Cl)noc4C4CC4)CC3)nc12 [Example 400-3]
- Emax: 104%
- EC50: 1 to 100 nM

Structure (SMILES): CC(C)Oc1cc(C(=O)O)cc2sc(N3C4CCC3CC(NCc3c(-c5c(F)cccc5F)noc3C3CC3)C4)nc12 (centres unmarked) [Example 1426]
- Emax: 73.2%
- EC50: 100 to 1000 nM

Structure (SMILES): [2H]C([2H])([2H])C1(S(=O)(=O)NC(=O)c2cc(F)c3nc(N4C5CCC4CC(NCc4c(-c6c(Cl)cccc6Cl)noc4C4CC4)C5)sc3c2)CC1 (centres unmarked) [Example 296]
- Emax: 184%
- EC50: < 1 nM

Structure (SMILES): CC1(S(=O)(=O)NC(=O)c2ccc3nc(N4C5CCC4CC(NCc4c(C6CCC7(CC6)CC7)noc4C4CC4)C5)sc3c2)CC1 (centres unmarked) [Example 1202]
- Emax: 85.5%
- EC50: 1 to 100 nM

Structure (SMILES): O=CC1(S(=O)(=O)NC(=O)c2cc(F)c3nc(N4C5CCC4CC(NCc4c(-c6c(Cl)cccc6Cl)noc4C4CC4)C5)sc3c2)CC1 (centres unmarked) [Example 299]
- Emax: 154%
- EC50: 1 to 100 nM

Structure (SMILES): O=C(NS(=O)(=O)C1CC1)c1ccc2nc(N3C4CCC3CC(NCc3c(-c5c(F)cccc5F)noc3C3CC3)C4)sc2c1 (centres unmarked) [Example 1417]
- Emax: 69%
- EC50: 1 to 100 nM

Structure (SMILES): CC(C)(C)CS(=O)(=O)NC(=O)c1ccc2nc(N3C4CCC3CC(NCc3c(-c5c(Cl)cccc5Cl)noc3C3CC3)C4)sc2c1 (centres unmarked) [Example 239]
- Emax: 201%
- EC50: 1 to 100 nM

Structure (SMILES): CC(C)Oc1cc(C(=O)O)cc2sc(N3C4CCC3CC(NCc3c(-c5c(Cl)cccc5Cl)noc3C3CC3)C4)nc12 (centres unmarked) [Example 200-14]
- Emax: 93.5%
- EC50: < 1 nM

Structure (SMILES): CC1(S(=O)(=O)NC(=O)c2cc(OC(F)F)c3nc(N4C5CCC4CC(NCc4c(-c6c(Cl)cccc6Cl)noc4C4CC4)C5)sc3c2)CC1 [Example 323, 2-((1R,3r,5S)-3-(((5-cyclopropyl-3-(2,6-dichlorophenyl)isoxazol-4-yl)methyl)amino)-8-azabicyclo[3.2.1]octan-8-yl)-4-(difluoromethoxy)-N-((1-methylcyclopropyl)sulfonyl)benzo[d]thiazole-6-carboxamide]
- Emax: 150%
- EC50: < 1 nM

Structure (SMILES): COC(=O)c1cc(OC(C)C)c2nc(N3C4CCC3CC(NCc3c(-c5c(Cl)cccc5Cl)noc3C3CC3)C4)sc2c1 (centres unmarked) [Example 200-13]
- Emax: 96%
- EC50: < 1 nM

Structure (SMILES): CN(C)S(=O)(=O)NC(=O)c1ccc2nc(N3C4CCC3CC(NCc3c(-c5c(Cl)cccc5Cl)noc3C3CC3)C4)oc2c1 (centres unmarked) [Example 301]
- Emax: 63%
- EC50: < 1 nM

Structure (SMILES): COC(=O)c1cnc2nc(N3C4CCC3CC(NCc3c(-c5c(Cl)cccc5Cl)noc3C3CC3)C4)sc2n1 (centres unmarked) [Example 200-17]
- Emax: 51.5%
- EC50: 1 to 100 nM

Structure (SMILES): O=C(O)c1ccc2nc(N3C4CCC3CC(NCc3c(-c5c(Cl)cccc5Cl)noc3C3CC3)C4)oc2c1 (centres unmarked) [Example 20]
- Emax: 56%
- EC50: 1 to 100 nM

Structure (SMILES): CC(C)S(=O)(=O)NC(=O)c1ccc2nc(N3C4CCC3CC(NCc3c(-c5c(Cl)cccc5Cl)noc3C3CC3)C4)sc2c1 (centres unmarked) [Example 237]
- Emax: 226%
- EC50: 1 to 100 nM

Structure (SMILES): CC(C)(C)Oc1ccc(S(=O)(=O)NC(=O)OCc2ccc3nc(N4C5CCC4CC(NCc4c(-c6c(Cl)cccc6Cl)noc4C4CC4)C5)sc3c2)cc1 (centres unmarked) [Example 153]
- Emax: 113%
- EC50: 1 to 100 nM

Structure (SMILES): CC1(S(=O)(=O)NC(=O)c2cc3sc(N4C5CCC4CC(NCc4c(-c6c(Cl)cccc6Cl)noc4C4CC4)C5)nc3cc2-c2ccccc2)CC1 (centres unmarked) [Example 400-32]
- Emax: 116%
- EC50: < 1 nM

Structure (SMILES): O=C(NS(=O)(=O)N1CCCCC1)c1ccc2nc(N3C4CCC3CC(NCc3c(-c5c(Cl)cccc5Cl)noc3C3CC3)C4)sc2c1 (centres unmarked) [Example 228]
- Emax: 140%
- EC50: 1 to 100 nM
